Data reported in EP0199302A2, “Contraception in dogs with luteinizing hormone releasing hormone antagonists” (SYNTEX (U.S.A.) INC., priority 1985, dated 1986).

Assays:
beagle bitch [1] = experiment: Termination of estrus in a beagle bitch (Example 4); format: in vivo, dogs; settings: 300 µg/kg/day for 14 days started on day 2 (entering estrus)
Protocol: A beagle bitch was identified with a slight sanguineous vaginal discharge (day 1 of the experiment). Microscopic evaluation of vaginal cytology confirmed the bitch to be in proestrus. […] She was immediately started on a course of treatment of 300 µg/kg/day for 14 days of [N-Ac-D-Nal(2) , D-p-Cl-Phe , D-Trp , D-Deh ,D-Ala ]LHRH.
The vaginal discharge diminished and was last noted on day 5. By day 6 the bitch was confirmed by vaginal cytology to have reentered diestrus.

bitch = experiment: Plasma progesterone and pregnancy outcome in a bitch given daily subcutaneous injections for 7 days (Example 1); format: in vivo, dogs
Source text: A bitch was bled and the plasma progesterone measured in nanograms per milliliter versus the day of diestrus. The bitch was bled on day -8 and day -4. The plasma progesterone was 4 to 6 nanograms per milliliter on those two days. At day 1, the plasma progesterone was at 30 nanograms per milliliter and peaked at about 60 on day 9 slowly decreasing to about 30 on day 25. At day 25 the bitch started to receive daily subcutaneous 1 2 3 injections of [N-Ac-D-Nal(2) , D-p-Cl-Phe , D-Trp , D-Deh , D-Ala ] LHRH for 7 days. After the first injection the plasma progesterone level immediately dropped to 4 nanograms per milliliter. At the end of the course of treatment, the level of plasma progesterone was down below 1 nanogram per milliliter. A fetus was expelled the 5th day of treatment and a tissue mass was expelled on day 49, which was 24 days after the start of treatment.

pregnant beagle bitches = experiment: Effect of time of dosing with two LHRH antagonists on pregnancy in bitches (Example 2, Table 1); format: in vivo, dogs; settings: daily injection for seven days, 300 µg/kg/day
Protocol: Several pregnant beagle bitches were treated with one of two different LHRH antagonists by subcutaneous injection.

pregnant cats = experiment: Seven-day subcutaneous minipump infusion in pregnant cats: plasma progesterone and pregnancy (Example 5); format: in vivo; settings: for Plasma level of progesterone: 300 μg/kg/day for seven days
Protocol: Female cats were bred and 15-18 days later were implanted subcutaneously with an Alzet^8 minipump filled with a solution of [N-Ac-D-Nal(2) , D-p-Cl-Phe , D-Trp , D-Deh ,D-Ala ]LHRH in propylene glycol at a concentration sufficient to deliver 300 µg/kg/day. The pumps were removed after seven days. No effect of treatment on circulating levels of progesterone could be discerned in daily plasma samples.

beagle bitch [2] = experiment: Single subcutaneous injection in a pregnant beagle bitch: plasma progesterone and abortion (Example 3); format: in vivo, dogs; settings: single subcutaneous injection of 50 mg on the twenty-ninth day of pregnancy
Protocol: A beagle bitch was bred and confirmed to be pregnant by manual palpation of the uterus during the fourth week of gestation. On the twenty-ninth day of pregnancy […] was administered a single subcutaneous injection of an aqueous solution of 50 mg of [N-Ac-D-Nal(2) , D-p-C1-Phe, D-Trp , D-Deh , D-Ala ]LHRH. Immediately before injection the plasma progesterone levels was 19ng/ml and by 24 hours after injection this had declined to 3.3 ng/ml. Plasma levels of progesterone varied thereafter from day to day but were never above 6 ng/ml. Delivery of an abortus was noted on the 36th day of pregnancy.

N-Ac-D-Nal(2)-D-pCL-Phe-D-Trp-Ser-Tyr-D-Deh-Leu-Arg-ProD-Ala
attractiveness to stud males (beagle bitch [1]): not attractive to stud males
reentered diestrus confirmed by vaginal cytology, day of the experiment (beagle bitch [1]): ≤ 6
sexual receptivity (beagle bitch [1]): no sign of sexual receptivity
vaginal discharge last noted, day of the experiment (beagle bitch [1]): 5
level of plasma progesterone at the end of the course of treatment (bitch; bitch, daily subcutaneous injections for 7 days starting day 25 of diestrus): below 1 nanogram per milliliter
plasma progesterone level after the first injection (bitch; bitch, daily subcutaneous injections for 7 days starting day 25 of diestrus, about 30 on day 25 before treatment): 4 nanograms per milliliter
tissue mass expelled, day (bitch; day of diestrus, 24 days after the start of treatment): 49
COMMENT (pregnancy outcome) (pregnant beagle bitches; dog 1, treatment on days 36-42 of pregnancy): Aborted on days 39-41 of pregnancy
COMMENT (pregnancy outcome) (pregnant beagle bitches; dog 2, treatment on days 32-38 of pregnancy): Aborted on day 35 of pregnancy
Plasma level of progesterone (pregnant cats; Cat 1, day 0 from treatment): 4.0 ng/mL
Plasma level of progesterone (pregnant cats; Cat 1, day 1 from treatment): 2.7 ng/mL
Plasma level of progesterone (pregnant cats; Cat 1, day 2 from treatment): 4.3 ng/mL
Plasma level of progesterone (pregnant cats; Cat 1, day 3 from treatment): 4.0 ng/mL
Plasma level of progesterone (pregnant cats; Cat 1, day 4 from treatment): 4.4 ng/mL
Plasma level of progesterone (pregnant cats; Cat 1, day 5 from treatment): 3.8 ng/mL
Plasma level of progesterone (pregnant cats; Cat 1, day 6 from treatment): 5.7 ng/mL
Plasma level of progesterone (pregnant cats; Cat 1, day 7 from treatment): 3.3 ng/mL
Plasma level of progesterone (pregnant cats; Cat 1, day 8 from treatment): 6.5 ng/mL
Plasma level of progesterone (pregnant cats; Cat 1, day 9 from treatment): 6.7 ng/mL
Plasma level of progesterone (pregnant cats; Cat 1, day 10 from treatment): 5.2 ng/mL
Plasma level of progesterone (pregnant cats; Cat 1, day -1 from treatment (before treatment)): 2.0 ng/mL
Plasma level of progesterone (pregnant cats; Cat 1, day -2 from treatment (before treatment)): 4.5 ng/mL
Plasma level of progesterone (pregnant cats; Cat 2, day 0 from treatment): 2.3 ng/mL
Plasma level of progesterone (pregnant cats; Cat 2, day 1 from treatment): 4.1 ng/mL
Plasma level of progesterone (pregnant cats; Cat 2, day 2 from treatment): 5.2 ng/mL
Plasma level of progesterone (pregnant cats; Cat 2, day 3 from treatment): 3.9 ng/mL
Plasma level of progesterone (pregnant cats; Cat 2, day 4 from treatment): 4.2 ng/mL
Plasma level of progesterone (pregnant cats; Cat 2, day 5 from treatment): 4.2 ng/mL
Plasma level of progesterone (pregnant cats; Cat 2, day 6 from treatment): 6.3 ng/mL
Plasma level of progesterone (pregnant cats; Cat 2, day 7 from treatment): 5.5 ng/mL
Plasma level of progesterone (pregnant cats; Cat 2, day 8 from treatment): 6.1 ng/mL
Plasma level of progesterone (pregnant cats; Cat 2, day 9 from treatment): 7.3 ng/mL
Plasma level of progesterone (pregnant cats; Cat 2, day 10 from treatment): 6.7 ng/mL
Plasma level of progesterone (pregnant cats; Cat 2, day -1 from treatment (before treatment)): 3.0 ng/mL
Plasma level of progesterone (pregnant cats; Cat 2, day -2 from treatment (before treatment)): 4.3 ng/mL
pregnancy outcome (pregnant cats; cats implanted 15-18 days after breeding, minipump 300 µg/kg/day for seven days): All treated cats continued to normal uneventful term delivery
effect of treatment on circulating levels of progesterone (pregnant cats; cats implanted 15-18 days after breeding, minipump 300 µg/kg/day for seven days, daily plasma samples): No effect
plasma progesterone level 24 hours after injection (beagle bitch [2]; 19ng/ml immediately before injection): 3.3 ng/mL
plasma levels of progesterone thereafter (beagle bitch [2]; later than 24 hours, varied from day to day): ≤ 6 ng/mL
